Data on 18 compounds can be found in US9688630B2, “3,3′-disubstituted indolines as inhibitors of cholesterol ester transfer protein” (Merck Sharp & Dohme Corp., priority 2013, dated 2017).

For orientation: IC50 means the point on the concentration scale where inhibition reaches its midpoint.

The target of experiment [1] is T1, recombinant CETP (Homo sapiens, UniProt P11597).
T1 sequence (P11597 18-493): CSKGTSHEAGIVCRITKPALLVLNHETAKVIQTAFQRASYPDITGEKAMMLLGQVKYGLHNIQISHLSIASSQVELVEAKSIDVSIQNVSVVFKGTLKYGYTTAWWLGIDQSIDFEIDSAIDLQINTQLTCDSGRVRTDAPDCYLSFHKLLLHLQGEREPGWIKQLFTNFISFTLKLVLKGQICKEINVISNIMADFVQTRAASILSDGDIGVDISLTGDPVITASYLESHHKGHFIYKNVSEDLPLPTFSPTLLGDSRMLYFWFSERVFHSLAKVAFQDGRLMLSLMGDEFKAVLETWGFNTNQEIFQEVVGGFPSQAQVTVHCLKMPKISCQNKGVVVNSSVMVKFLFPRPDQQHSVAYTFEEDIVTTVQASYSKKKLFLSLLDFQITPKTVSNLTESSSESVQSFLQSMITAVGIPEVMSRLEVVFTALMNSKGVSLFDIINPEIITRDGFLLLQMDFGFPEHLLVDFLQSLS
The experiment in a line: RTA assay using recombinant CETP (2% RTA). The experiment is classed as biochemical. The following applies: 2% human serum. As for the experimental part:
(§1) In Vitro Radioactive Assays of CETP-Catalyzed CE and TG Transfer (RTA Assay)
(§2) Reagents and sources are: [3H] cholesteryl oleate (GE #TRK.886), [3H] Triolein (Perkin-Elmer NET-431), Butylated hydroxyl toluene (Aldrich, #D4740-4), DOPC (Sigma, #P6354), Sodium Bromide (Fisher scientific #S255-500), PEG 8000 (Fisher, #BP233-1), and human HDL (Intracel Corp #RP-036).
(§3) An in vitro assay for determining IC50's to identify compounds that inhibit CETP transfer activity is performed based on a modification of a published method (Morton and Zilversmit, (1981) A plasma inhibitor of triglyceride and cholesteryl ester transfer activities, J. Biol. Chem. 256(23), 11992-11995). The ability of inhibitors to alter CETP activity is performed using two different assays: one using recombinant CETP and one using an endogenous plasma source of CETP. Both assays measure the transfer of [3H] cholesteryl oleate or [3H] triolein from exogenous LDL to HDL.
(§4) Radiolabeled donor particles are generated by first combining 100 μl of 200 μM butylated hydroxyl toluene in CHCl3, 216 μL of 21.57 mM DOPC in EtOH, and either 500 μCi [3H]-triolein (Perkin Elmer #NET-431) or 500 μCi [3H]-cholesteryl oleate (GE #TRK886) in a glass tube. Reagents are mixed, dried under nitrogen, and then resuspended in 2 mL of 50 mM Tris, 27 μM EDTA at pH 7.4. After a brief vortex, the solution is sonicated until clear and mixed with 20 mL of fresh human serum. The mixture is incubated overnight at 37° C. The [3H] labeled LDL substrate is separated at 1.063 g/ml density by sequential ultracentrifugal flotation in NaBr according to the method of Havel, Eder, et al., 1955, and Chapman, Goldstein, et al., 1981. Once isolated the particles are dialyzed 3× in CETP buffer (50 mM Tris, pH 7.4, 100 mM NaCl, 1 mM EDTA). Human HDL is purchased from Intracel and used as the acceptor particles.
(§5) Transfer assays are performed in a 96-well v-bottom polypropylene plate. For the RTA using recombinant CETP (2% RTA), an assay cocktail is prepared with the final concentrations 128 μg/mL HDL, 20 nM rCETP, 2% human serum, and 1×CETP buffer. 1 μL of each test compound diluted in DMSO is added to 47 μL of assay cocktail per well and incubated at 37° C. for 1 hour. To initiate the transfer reaction, 2 μL radiolabeled LDL is added. After an additional 60 min of incubation at 37° C., the transfer action is terminated by precipitation of LDL with an equal volume of 20% W/V PEG 8000. The plates are centrifuged at 2000 rpm for 30 minutes at 4° C. A 40 μL aliquot of the HDL-containing supernatant is transferred to a Packard Optiplate™ with 200 μL of MicroScint™ 20. After mixing, plates are counted by liquid scintillation. Counts present in the supernatant for blanks (wells containing only HDL acceptor, CETP buffer and DMSO) are subtracted from those containing test compounds and used to correct for non-specific transfer.
(§6) Comparison of the counts of samples with inhibitors to an uninhibited (DMSO only) positive control yield a percent inhibition. A plot of percent inhibition vs. log of inhibitor concentration, fit to a Sigmoidal 4 parameter equation is used to calculate IC50.

Experiment [2] addresses T2, endogenous CETP from human serum (Homo sapiens, UniProt P11597).
T2 construct: yielding a concentration of approximately 15 nM endogenous CETP in the assay; from tissue; host or cells: human serum
T2 sequence (P11597 18-493): T1 sequence (P11597 18-493)
The experiment in a line: RTA assay using endogenous CETP from serum (95% RTA). Type of experiment: biochemical. The following applies: 95% human serum. As for the experimental part:
as §1, §2, §3, §4, §5
For the transfer assay using endogenous CETP from serum (95% RTA), the same procedure is used except that human serum is added such that a final concentration of serum of 95% of the total assay volume is achieved, yielding a concentration of approximately 15 nM endogenous CETP in the assay. This is then combined with HDL and CETP buffer and the reaction proceeds as above and is terminated as described.
as §6

For `Cc1ccc(C2(Cc3cccc(OC(F)(F)F)c3)CN(C[C@@H](O)C(F)(F)F)c3ccccc32)cc1-c1ccc(C(=O)O)cc1` (some centres unmarked) [Example 28], in experiment [1], the IC50 is 1510 nM.
Consider `CS(=O)(=O)c1cccc(CC2(c3cccc(OC(F)(F)F)c3)CN(C[C@@H](O)C(F)(F)F)c3ccccc32)c1` (stereo partly drawn) [Example 46, (2R)-1,1,1-trifluoro-3-(3-(3-(methylsulfonyl)benzyl)-3-(3-(trifluoromethoxy)phenyl)indolin-1-yl)propan-2-ol], for which the concentration for half-maximal inhibition (IC50) in experiment [1] was 264 nM; in experiment [2], 8960 nM.
The like results for `O[C@H](CN1CC(Cc2cccc(N3CCCC(F)(F)C3)c2)(c2cccc(OC(F)(F)F)c2)c2ccccc21)C(F)(F)F` (some centres unmarked) [Example 59] were, in that order, 198 nM and 1420 nM.
For `O[C@H](CN1CC(Cc2cccc(OC(F)(F)F)c2)(c2cccc(N3CCC(F)(F)C3)c2)c2ccccc21)C(F)(F)F` (some centres unmarked) [Example 35], in that order: 98 nM and 533 nM.
The like results for `Cc1ccc(C2(Cc3cccc(OC(F)(F)F)c3)CN(C[C@@H](O)C(F)(F)F)c3ccccc32)cc1Cl` (some centres unmarked) [Example 18] were, in that order, 161 nM and 1350 nM.
For `O[C@H](CN1CC(Cc2cccc(OC(F)(F)F)c2)(c2cccc(C(F)(F)F)c2)c2ccccc21)C(F)(F)F` (mixture of isomers) [Example 1, (2R)-1,1,1-trifluoro-3-(3-(3-(trifluoromethoxy)benzyl)-3-(3-(trifluoromethyl)-phenyl)indolin-1-yl)propan-2-ol], the IC50 in experiment [1] came out at 28 nM; in experiment [2] it was 1220 nM.
The like results for `O[C@H](CN1CC(Cc2ccccc2)(c2cccc(OC(F)(F)F)c2)c2ccccc21)C(F)(F)F` (some centres unmarked) [Example 2] were, in that order, 238 nM and 746 nM.
As to `O[C@H](CN1CC(Cc2cccc(OC(F)(F)F)c2)(c2cccc(OC(F)(F)F)c2)c2cccc(F)c21)C(F)(F)F` (some centres unmarked) [Example 12], the half-maximal inhibitory concentration (IC50) in experiment [1] is 67 nM; in experiment [2] it was 222 nM.
With `O[C@H](CN1CC(Cc2cccc(OC(F)(F)F)c2)(c2cccc(N3CCCC(F)(F)C3)c2)c2ccccc21)C(F)(F)F` (some centres unmarked) [Example 40], the half-inhibitory concentration (IC50) in experiment [1] stood at 119 nM; in experiment [2] it was 791 nM.
For `O[C@H](CN1CC(Cc2cccc(OC(F)(F)F)c2)(c2ccnc(C(F)(F)F)c2)c2ccccc21)C(F)(F)F` (some centres unmarked) [Example 20], in that order: 447 nM and 2600 nM.
In the case of `O[C@H](CN1CC(Cc2cccc(Br)c2)(c2cccc(OC(F)(F)F)c2)c2ccccc21)C(F)(F)F` (stereo partly drawn) [Example 3, (2R)-3-(3-(3-bromobenzyl)-3-(3-(trifluoromethoxy)phenyl)indolin-1-yl)-1,1,1-trifluoropropan-2-ol], the half-inhibitory concentration (IC50) in experiment [1] worked out at 67 nM; in experiment [2] it was 308 nM.
For `Cc1cc(C(=O)O)ccc1-c1cccc(C2(Cc3cccc(OC(F)(F)F)c3)CN(C[C@@H](O)C(F)(F)F)c3ccccc32)c1` (some centres unmarked) [Example 27], the IC50 in experiment [1] is 378 nM; in experiment [2], 4070 nM.
In experiment [2], `O[C@H](CN1CC(Cc2cccc(OC(F)(F)F)c2)(c2cccc(OC(F)(F)F)c2)c2cc(F)ccc21)C(F)(F)F` (some centres unmarked) [Example 6] yielded an IC50 of 763 nM.
Still for that read-out and setting: under `O[C@H](CN1CC(Cc2cccc(OC(F)(F)F)c2)(c2cccc(OC(F)(F)F)c2)c2ccccc21)C(F)(F)F` (some centres unmarked) [Example 10] stands 69 nM.
For the compound `Cc1cc(C(=O)O)ccc1-c1cc(C2(Cc3cccc(OC(F)(F)F)c3)CN(C[C@@H](O)C(F)(F)F)c3ccccc32)ccc1F` (some centres unmarked) [Example 30], the IC50 in experiment [1] is 328 nM.
As for `O[C@H](CN1CC(Cc2cccc(OC(F)(F)F)c2)(c2ccc(OC(F)(F)F)cc2)c2ccccc21)C(F)(F)F` (some centres unmarked) [Example 7], in experiment [2], the IC50 was found to be 232 nM.
As to `Cc1cc(C(=O)O)ccc1-c1cc(C2(Cc3cccc(OC(F)(F)F)c3)CN(C[C@@H](O)C(F)(F)F)c3ccccc32)ccc1C` (some centres unmarked) [Example 29], in experiment [1], the 50% inhibitory concentration (IC50) is 1690 nM.
Consider `O[C@H](CN1CC(Cc2ccc(F)cn2)(c2cccc(OC(F)(F)F)c2)c2cccc(F)c21)C(F)(F)F` (some centres unmarked) [Example 15], for which, in experiment [1], the concentration for half-maximal inhibition (IC50) was 2860 nM.
